Test system: NIH 3T3 cells
Experiment: Methylene blue toxicity assay on NIH 3T3 cells
Format: cell-based
Settings: amounts used in transfection, free assemblies or lipoplexes with luciferase plasmid, lipid/DNA charge ratios 1-16, chloride form
Experimental: Cytotoxicity was tested by the methylene blue (MB) staining assay [Elliott W M and Auersperg N. Biotech Histochem 68:29-35 (1993)]. In general, a known number of exponentially growing cells in 200 μL of medium were plated in 96-microwell, flat-bottomed plates. For each of the lipoplexes tested, 3 wells were used. Following 24 h of incubation in culture, 20 μL of different concentrations of various lipoplexes were added to each well containing untreated cells. Normal saline was added to the controls. Cells were exposed to lipoplex for 24 h. At the end of exposure the treated cells, as well as parallel control cells were washed and fixed by adding 50 μL of 2.5% glutaraldehyde to each well for 15 min. Fixed cells were rinsed 10 times with deionized water and once with borate buffer (0.1 M, pH 8.5), dried, and stained with MB (100 μL of 1% solution in 0.1 M borate buffer, pH 8.5) for 1 h at r. t. Stained cells were rinsed thoroughly with de-ionized water to remove any non-cell-bound dye and then dried. The MB bound to the fixed cells was extracted by incubation at 37° C. with 200 μL of 0.1 N HCl for 1 h, and the net optical density of the dye in each well was determined by a plate spectrophotometer (Labsystems Multyskan Bichromatic, Finland) at 620 nm.

CCCCCCCCCCCCC/C=C/[C@@H](O)[C@H](COC(=O)NCCCNCCCCNCCCN)NC(=O)CCCCCCCCCCCCCCC [CCS, N-palmitoyl D-erythro sphingosyl carbamoyl-spermine]
toxicity (living cells): non toxic

From patent US8242089B2, “Sphingolipids polyalkylamine conjugates for use in transfection” (Yissum Research Development Company of the Hebrew …, priority 2003, dated 2012)
